According to US10683273B2, “Compounds as DNA probes, methods and applications thereof” (JAWAHARLAL NEHRU CENTRE FOR ADVANCED SCIENTIFIC RESEARCH, priority 2015, dated 2020):

What was measured:
[1] = system: DM1 (5′-ATAT-3′); experiment: Sequence-specific fluorescence enhancement, variable (A/T)4 core; type: binding; conditions: QCy-DT 2 μM, DM1 4 μM
Description: (§1) All the chemicals, reagents, single-stranded oligos (dA20, dT20, dG20, dC20), self-complementary oligos {d(ATAT)5, (D1)mix, Drew-AT, Calf-Thymus DNA (CT-DNA), (DM1, DM2, DM3, DM4, DM5, DM6 and DM7)}, RNA, were purchased from Sigma-Aldrich. ^1H and ^13C NMR spectra were recorded on a Bruker AV-400 MHz spectrometer with chemical shifts reported as parts per million (ppm) (in DMSO-d6, tetramethylsilane as an internal standard) at 20° C. UV-vis absorption and emission spectra were measured in quartz cuvettes of 1 cm path length. High resolution mass spectra (HRMS) were obtained on Agilent Technologies 6538 UHD Accurate-Mass Q-TOF LC/MS spectrometer. All biophysical studies (UV-vis, fluorescence and Cirular dichroism) are carried out at the concentration 0-5 μM of probe, volume=500 μL, temperature=25° C. and time of incubation=2 minutes. HeLa cells and MCF7 cells used in the biological studies are obtained from “Molecular reproduction, development and genetics lab, Indian institute of science, Bangalore, India”
(§2) Stock solutions of QCy-DT are prepared in double-distilled (dd) water in the order of 10^−3 M and stored at about −10° C. DNA stock solutions are prepared by dissolving oligo samples in double-distilled (dd) water in the order of 10^−4 M. Solutions of DNA duplexes are prepared in Tris-HCl (100 mM, pH=7.4) buffer solution by mixing complementary DNA strands in equimolar concentration. This solution is then subjected to annealing by heating up to about 85° C. for about 15 minutes, subsequently cooled to room temperature for about 7 hours and stored in the refrigerator (about 4° C.) for about 4 hours.
(§3) The UV-vis absorption and emission spectra are recorded on Agilent Technologies Cary series UV-vis-NIR absorbance and Cary eclipse fluorescence spectrophotometers, respectively. Thermal denaturation (UV-melting) studies are carried out on Cary 5000 UV-vis-NIR spectrophotometer equipped with Cary temperature controller in the range of 10° C. to 90° C. with a ramp rate of 1° C./min. The variable temperature/wavelength mode is used. Absorption is monitored at 260 nm with regular 5° C. intervals. Melting temperatures (Tm) of DNA samples are calculated from the first derivatives of the absorption vs. temperature curves (thermal denaturation or melting curves) obtained by monitoring at 260 nm.
(§4) Almost about ˜4-folds difference in fluorescence enhancement of QCy-DT in the presence of (A-T)20 compared to self-complementary, alternative AT-base pair containing d(ATAT)5 duplex is observed, although both contain total 20 AT base pairs (FIG. 3 and FIG. 12a). […] There are no NIR-fluorescence probes that sequence-specifically recognize the minor groove of AT-rich DNA. […] Further, QCy-DT detects all AT-rich sequences by showing varied fluorescence/sensitivity. […]

[2] = system: DM2 (5′-ATTA-3′); experiment: as above; type: binding; conditions: QCy-DT 2 μM, DM2 4 μM
Description: as §1, §2, §3, §4

[3] = system: DM3 (5′-AAAA-3′); experiment: as above; type: binding; conditions: QCy-DT 2 μM, DM3 4 μM
Description: as §1, §2, §3, §4

[4] = system: DM4 (5′-AATT-3′); experiment: as above; type: binding; conditions: QCy-DT 2 μM, DM4 4 μM
Description: as §1, §2, §3, §4

[5] = Fluorescence quantum yield in absence of DNA; type: physicochemical
Description: Cresyl violet perchlorate in ethanol (ϕ=0.54) is used as the standard for the fluorescence quantum yield calculation using the absorption of the test sample. The emission spectral area is obtained in the 550-800 nm regions. Dilute solutions (10^−6 M) are used to minimize reabsorption effects of the dyes. Quantum yields are determined using the following equation, ϕs=ϕr(Fs/Fr)×(Ar/As)×(ns^2/nr^2)
Where, ϕr and ϕs are the quantum yield of reference and sample respectively, Fr and Fs are the integrated intensities (areas) of standard and sample spectra, nr and ns are the refractive indices of the reference and sample solution, Ar and As are the absorbance intensities of reference and sample respectively.

[6] = system: P. falciparum strain 3D7; experiment: Live fluorescence imaging of malaria parasites; type: cell-based, Plasmodium falciparum; conditions: 0.5 μM, early trophozoite stage, 30 min
Description: P. falciparum strain 3D7 is cultured. Briefly, malaria parasites are cultured in human erythrocytes in T75 flasks with RPMI 1640 (Gibco) supplemented with 10 μg/mL gentamicin (Sigma), 50 μg/mL ampicillin, 0.2% NaHCO3 (Sigma), 0.5% albumax (Invitrogen) and Hypoxanthine (27 mg/L). The culture is maintained under standard conditions (37° C. in 90% nitrogen, 5% CO2, and 5% O2). For synchronization of the parasites, ring-staged parasites are treated with 5% sorbitol at 37° C. for about 5-10 min, followed by washing with pre-warmed incomplete medium twice, and placed back in complete medium. QCy-DT probe (resuspended in Mili-Q water) is added to parasites (25±2 hpi) at a final concentration of 0.5 μM and the parasites are incubated for 30 min at 37° C. Following treatment fluorescence imaging of the parasites is performed using Carl Zeiss AXIO Imager Z1 and the software used for image capturing was AxioVision Rel. 4.8.

Quantum Yield (ΦF) ([5]; Glycerol): ~0.07
Quantum Yield (ΦF) ([5]; Tris-HCl buffer 100 mM, pH 7.4, probe alone): 0.0039
Structure (SMILES): C[n+]1c(/C=C/c2ccc(O)c(/C=C/c3sc4ccccc4[n+]3C)c2)sc2ccccc21 [QCy-DT, quinone cyanine-dithiazole]
fluorescence enhancement [1]: ~8 fold
fluorescence enhancement [2]: ~15 fold
fluorescence enhancement [3]: ~40 fold
fluorescence enhancement [4]: ~72 fold
parasite staining [6]: specifically stain the parasite nuclei
